The source of these data is US20050118310A1, “Formulations of compounds derived from natural sources and their use with irradiation for food preservation” (priority 2001, published 2005).

Marks after values point to notes of the source that are not given here.

In this assay the test system is E. coli. In words: Effect of carvacrol concentration on survival of E. coli in ground beef irradiated at 0.25 kGy. Format: cell-based, Escherichia coli (ATCC 25922). The note with it: for Increase in Sensitivity: vs 0% carvacrol. From the text:
The irradiation treatments of ground beef samples for D10 determination was done using UC-15B irradiator (MDS-Nordion International Inc., Kanata, ON, Canada) equipped with a ^60Co source at a dose rate of 14.42 kGy/h). Irradiation doses used for D10 determination were ranged from 0.1 to 0.6 kGy for E. coli and from 0.50 to 2.0 kGy for S. typhi. Under frozen condition, the irradiation doses ranged from 0.1 to 0.7 kGy for E. coli and from 0.5 to 3.0 kGy for S. typhi. For the determination of the effect of various concentrations of carvacrol on the irradiation sensitivity, samples were irradiated at 0.25 kGy for E. coli and at 0.5 kGy for S. typhi. Irradiation doses used for D10 determination in chicken breast ranged from 0.1 to 0.7 kGy for E. coli and from 0.25 to 2.0 kGy for S. typhi. Samples were analysed immediately after irradiation to determine the microbial count.
Samples were homogenised for 2 min in sterile peptone water (0.1%) using a Lab-blender 400 stomacher (Laboratory Equipment, London, UK). From this mixture, serial dilutions were prepared and appropriate ones were pour-plated in tryptic soy agar (TSA) (Difco, Laboratories, Detroit, Mich., USA) and incubated at 35° C., 24 hours for the numeration of E. coli and S. typhi.
The effect of various concentrations of carvacrol in irradiated ground beef was evaluated in order to determine if lower concentrations of carvacrol could also increase the irradiation sensitivity of E. coli and S. typhi in ground beef. For these experiments, sterile ground beef was contaminated with either E. coli or S. typhi to a final concentration of 10^5 CFU/g. Various concentrations of carvacrol ranging from 0 to 2.0% were added to the ground beef samples and transferred in portions of 25 g each to sterile petri plates (60×15 nmu) then stored at 4° C. until irradiation treatment (approximately 15 h).

Take `Cc1ccc(C(C)C)cc1O` [Carvacrol, carvacrol]: the “Log CFU/g” value (carvacrol 0.2%) is recorded as 2.948 ± 0.088^b Log CFU/g; the “Log CFU/g” value (carvacrol 0.4%) is 2.948 ± 0.068^b Log CFU/g; the “Log CFU/g” value (carvacrol 0.6%) is reported as 2.660 ± 0.037^c Log CFU/g; the “Log CFU/g” value (carvacrol 0.8%) is 1.198 ± 0.065^d Log CFU/g; the “Log CFU/g” value (carvacrol 1.0%) is reported as 0.843 ± 0.000^e Log CFU/g; the “Log CFU/g” value (carvacrol […]) was 0.000 ± 0.000^f Log CFU/g. In addition, the “Increase in Sensitivity” value is recorded as 4.8% (carvacrol 0.2%); 4.8% (carvacrol 0.4%); 14.1% (carvacrol 0.6%); 61.3% (carvacrol 0.8%); 72.8% (carvacrol 1.0%); 100% (carvacrol […]).
